Results on five compounds are retold here after patent US10251869B2, “Compositions and methods of inhibiting metallo-β-lactamases” (priority 2014, dated 2019).

≈ marks a conversion by molar mass, not a printed value. Read-outs that look alike come from different tables or passages of the source.

One test has as its target T1, VIM-2 (Pseudomonas aeruginosa, UniProt Q9K2N0).
T1 construct: made in house; host or cells: E. coli BL21(DE3) pLys, plasmid pET-24a(+)-blaVIM-2-S21
Kind of test: BTZ inhibition kinetics of nitrocefin hydrolysis by VIM-2. Format: biochemical, P. aeruginosa. To be noted: for k−2: rate constant for breakdown of E*I; for k2: rate constant for formation of E*I. The text has this:
(§1) Analysis of BTZ inhibition kinetics. Models involving one, or two-step slow binding were considered to analyze BTZ inhibition of NFC hydrolysis by VIM-2 and VIM-24 (Scheme 1).
(§2) Here E represents the free enzyme, and I the free inhibitor, EI is the final enzyme-inhibitor complex for a single step slow binding mechanism, and E*I is the enzyme-inhibitor complex formed after conformational changes in a two-step slow binding mechanism. Therefore, the dissociation constant for the EI complex (Ki), also called the inhibitor constant, is defined as Ki=k−1/k1; the dissociation constant for the E*I complex (Ki′) is defined as Ki′=k−2/k2, and the overall dissociation constant for the two-step mechanism (Ki*) is defined as Ki*=Ki/(1+([…])).
(§3) The Ki for each inhibitor was determined by direct competition assays under steady-state conditions. The initial velocity was measured in the presence of a constant concentration of enzyme (3 nM for VIM-2 and 4 nM for VIM-24) with increasing concentrations of inhibitor (5-60 μM) against a fixed concentration (5 x KM) of the indicator substrate, NCF, as previously described (42-44). The reactions were started by addition of VIM-2 or VIM-24 to substrate or to mixtures of substrate and inhibitor. Data were linearized by plotting inverse initial steady-state velocities (1/v0) against inhibitor concentration (I). Ki (observed) was determined by dividing the value for the y intercept by the slope of the line. Ki determinations were corrected to account for the affinity of NCF for the β-lactamase according to equation 3.
(§4) Measurements of association rate constants for inhibitor binding were carried out at 25° C. in 10 mM HEPES at pH 7.5 supplemented with 200 mM NaCl, 50 μM […] and 50 μg/ml BSA, in the presence of several concentrations of each compound. Reactions were then initiated by the addition of β-lactamase (3 nM VIM-2 or 4 nM VIM-24) to a mixture of 50 μM NCF and each BTZ without pre-incubation. Inhibitor association rate constants were estimated from linear extrapolation of the observed rate constant for inhibition (kobs), which was obtained by fitting progress curves of NFC hydrolysis to Eq. 4:
(§5) As previously described, the linear dependence of kobs vs. [I] at limiting I concentration approximates second-order rate constant k2/Ki. The observed second-order rate constant also includes an adjustment for competition between inhibitor and substrate binding (Eq. 5).
(§6) Also, vs calculated from the progress curves of NCF hydrolysis for each concentration of inhibitor were used to determine Ki*, according to the relationship shown in equation 6 (5). The value reported is the mean of three velocities±SD.
(§7) To further test the time-dependent inhibition mechanism of inhibitor binding, assays using dilutions of pre-formed complexes were performed. For these experiments, 1 μM of enzyme was incubated with varying concentrations of the inhibitor which allowed for complete inactivation of the enzyme during the 5 min incubation at 25° C. The reactions were then diluted 2,000-fold in 10 mM HEPES at pH 7.5 supplemented with 200 mM NaCl, 50 μM […] and 50 μg/ml BSA, which contained 50 μM NCF. Reactivation of the enzyme based on NCF hydrolysis was monitored over time. Control reaction with the free enzyme was performed in the same fashion.

The target in test [1] is T2, VIM-24 (Escherichia coli, UniProt Q5U7L7, R205L).
T2 construct: which corresponds to cleavage after residues 20 (plus an additional Met residue on the N-terminus); made in house; host or cells: E. coli BL21(DE3) pLys, plasmid pET-24a(+)-blaVIM-24-S21
Kind of test: BTZ inhibition kinetics of nitrocefin hydrolysis by VIM-24. In kind it is biochemical. To be noted: for k2: rate constant for formation of E*I.
From the text: as §1, §2, §3, §4, §5, §6, §7

The subject of the next test is E. coli pBC SK(−). Kind of test: MIC by agar dilution, E. coli DH10B host with empty phagemid. In kind it is cell-based. As to conditions: Escherichia coli. As for the experimental part:
(§8) E. coli DH10B (Invitrogen, Carlsbad, Calif.) was used as a host strain for pBCSK (−) blaVIM-2, and to obtain a mutant library at position 228 by site-saturation mutagenesis, using the QuickChange XL Site-directed Mutagenesis Kit (Stratagene). Briefly, primers that capture all 19 variants at MBL position 228 were designed and PCR mutagenic reactions were conducted using pBCSK (−) blaVIM-2 as a template, and transformed into E. coli DH10B. Single colonies were selected for plasmid purification, and successful mutagenesis was verified by complete DNA sequencing.
(§9) The effect of Zn^2+ availability was also tested by agar dilution using MH supplemented with 250 μM ZnSO4 or 5 μM EDTA. Reported values are the mode of at least 3 biological replicates.
For orientation: Agar dilution tests growth on a series of plates holding different concentrations.

Test [2] relates to E. coli DH10B pBCSK(−) producing VIM-2 (228R). Kind of test: MIC by agar dilution, E. coli DH10B producing VIM-2. In kind it is cell-based. As to conditions: Escherichia coli, read-out: MIC.
From the text: A forward primer containing the SacI restriction site and a reverse primer with the BamHI restriction site were used to amplify blaVIM-2 including the pET24a(+) ribosomal binding site, using plasmid pET-24a(+)-blaVIM-2 as template. The product was then subcloned into phagemid pBCSK (−) (Agilent (Santa Clara, Calif.)) using the above restriction sites, and thus placing the blaVIM-2 open reading frame under control of the lac promoter, to yield phagemid pBCSK (−) blaVIM-2.
as §8, §9

For test [3], the system named is E. coli DH10B pBCSK(−) producing VIM-24 (R228L). Kind of test: MIC by agar dilution, E. coli DH10B producing VIM-24. To be noted: Escherichia coli, read-out: MIC. In kind it is cell-based. The procedure:
as §8, §9

The subject of test [4] is E. coli DH10B pBCSK(−) producing R228K variant. Kind of test: MIC by agar dilution, E. coli DH10B producing VIM-2 R228K. Format: cell-based. To be noted: Escherichia coli. As for the experimental part:
as §8, §9

Test [5] has as its system E. coli DH10B pBCSK(−) producing R228P variant. Kind of test: MIC by agar dilution, E. coli DH10B producing VIM-2 R228P. Format: cell-based. As to conditions: Escherichia coli. As for the experimental part:
as §8, §9

In test [6] the test system is E. coli DH10B pBCSK(−) producing R228M variant. Kind of test: MIC by agar dilution, E. coli DH10B producing VIM-2 R228M. As to conditions: Escherichia coli. Format: cell-based. The procedure: as §8, §9
The test system of test [7] is E. coli DH10B pBCSK(−) producing R228Q variant. Kind of test: MIC by agar dilution, E. coli DH10B producing VIM-2 R228Q. In kind it is cell-based. To be noted: Escherichia coli. The procedure:
as §8, §9

For test [8], the system named is E. coli DH10B pBCSK(−) producing R228Y variant. In words: MIC by agar dilution, E. coli DH10B producing VIM-2 R228Y. In kind it is cell-based. To be noted: Escherichia coli. As for the experimental part:
as §8, §9

The subject of test [9] is VIM-2 producing P. aeruginosa. Kind of test: Imipenem MIC of clinical isolate, VIM-2 P. aeruginosa. Format: cell-based.
Test [10] concerns VIM-24 producing K. pneumoniae. Kind of test: Imipenem MIC of clinical isolate, VIM-24 K. pneumoniae. Format: cell-based. To be noted: Klebsiella pneumoniae.
The target of test [11] is T2, VIM-24. In words: Steady-state kinetic parameters of substrate hydrolysis by VIM-24. Format: biochemical. As to conditions: pH 7.5, 25° C., average ± SD, triplicate. From the text: Steady-state reactions were followed using an Agilent (Santa Clara, Calif.) 8453 Diode Array spectrophotometer as previously described. […] For ceftazidime and cefepime, a 0.2-cm path length quartz cuvette was used. A nonlinear leastsquares fit of the data (Henri Michaelis-Menten equation) using Enzfitter (Biosoft Corporation, Ferguson, Mo.) was employed to obtain the steady-state kinetic parameters Vmax and KM according to equation 1.
In this equation the observed first-order rate constant k=kcat/KM*[E].

The mark [12] stands for this setting: initial complex EI, NCF as reporter substrate.
Setting [13] is: overall dissociation constant of two-step mechanism (E*I).
[14] abbreviates: MHA supplemented with 5 μM EDTA.
Where [15] appears, read: MHA supplemented with 250 μM Zn2+.

What is called Ki is the equilibrium dissociation constant of an inhibitor or competing ligand from its target. What is called Km is the concentration of substrate that gives half-maximal velocity.

In the case of `CC1(C)SC2CSC(CS)N2C1C(=O)O` [L-VC26], the values for the Ki on VIM-2 (setting [12]) and on VIM-2 (setting [13]) were 3800 ± 200 nM and 250 ± 10 nM, respectively. For the same compound, on VIM-2, the “k−2” value was 0.001 ± 1 × 10^−3 s^−1. The k2 at VIM-2 is recorded as 0.02 ± 1 × 10^−3 s^−1; on VIM-24 [1] it was 0.04 ± 2 × 10^−3 s−1.
As to `CC1(C)S[C@@H]2[C@H](NC(=O)[C@H](N)c3ccccc3)C(=O)N2[C@H]1C(=O)O` [Ampicillin], the MIC in the test on E. coli pBC SK(−) (MHA) stood at 4 µg/mL (≈ 11.4 µM); in test [2] (MHA), 512 µg/mL (≈ 1470 µM); in test [3] (MHA), 512 µg/mL (≈ 1470 µM); in test [4] (MHA), 32 µg/mL (≈ 91.6 µM); in test [5] (MHA), 32 µg/mL (≈ 91.6 µM); in [6] (MHA), 1020 µg/mL (≈ 2930 µM). Moreover, the MIC in test [7] (MHA) and in test [8] (MHA) was 1020 µg/mL (≈ 2930 µM) throughout.
Turning to `C[C@@H](O)[C@H]1C(=O)N2C(C(=O)O)=C(SCCN=CN)C[C@H]12` [Imipenem], the MIC with E. coli pBC SK(−) (MHA) is 0.25 µg/mL (≈ 0.835 µM); against E. coli pBC SK(−) (setting [14]), ≤ 0.125 µg/mL; in the test with E. coli pBC SK(−) (setting [15]), 0.25 µg/mL (≈ 0.835 µM); in [2] (setting [14]), 0.5 µg/mL (≈ 1.67 µM); in test [2] (setting [15]) it was 1 µg/mL (≈ 3.34 µM); in test [2] (MHA), 0.5 µg/mL (≈ 1.67 µM). Moreover, the MIC was 0.5 µg/mL (≈ 1.67 µM) in test [3] (setting [14]); 1 µg/mL (≈ 3.34 µM) in test [3] (setting [15]); 0.5 µg/mL (≈ 1.67 µM) in test [3] (MHA); 0.25 µg/mL (≈ 0.835 µM) in [4] (MHA); 0.25 µg/mL (≈ 0.835 µM) in [4] (setting [14]); 0.25 µg/mL (≈ 0.835 µM) in test [4] (setting [15]). The MIC is 0.5 µg/mL (≈ 1.67 µM) in test [5] (MHA); ≤ 0.125 µg/mL in test [5] (setting [14]); 0.25 µg/mL (≈ 0.835 µM) in test [5] (setting [15]); 2 µg/mL (≈ 6.68 µM) in test [6] (MHA); 1 µg/mL (≈ 3.34 µM) in [6] (setting [14]); 4 µg/mL (≈ 13.4 µM) in [6] (setting [15]). In addition, the MIC was 4 µg/mL (≈ 13.4 µM) in test [7] (MHA); 4 µg/mL (≈ 13.4 µM) in [7] (setting [14]); > 4 µg/mL in [7] (setting [15]); 1 µg/mL (≈ 3.34 µM) in test [8] (MHA); 1 µg/mL (≈ 3.34 µM) in test [8] (setting [14]); 1 µg/mL (≈ 3.34 µM) in test [8] (setting [15]). Also, the MIC in test [9] (Pseudomonas aeruginosa) was determined as 32 µg/mL; in test [9] (VIM-2 harboring P. aeruginosa clinical isolate), 32 µg/mL; in test [10] (VIM-24 producing K. pneumoniae) it was 2 µg/mL; in test [10] (VIM-24 producing K. pneumoniae clinical isolate), 1 µg/mL.
On to `O=C(O)[C@H]1CS[C@@H]2CS[C@@H](CS)N12` [D-CS319], for which the results for the Ki on VIM-2 (setting [12]) and at VIM-2 (setting [13]) were 5400 ± 400 nM and 180 ± 20 nM, respectively. The entries for the “k−2” value on VIM-2 and at VIM-24 [1] (rate constant for breakdown of E*I) were 0.0003 ± 1 × 10^−4 s^−1 and 0.004 ± 1 × 10^−3 s^−1, respectively. Further, the k2 on VIM-2 was 0.01 ± 1 × 10^−3 s^−1; at VIM-24 [1], 0.07 ± 4 × 10^−3 s−1.
On to `O=C(Cc1cccs1)N[C@@H]1C(=O)N2C(C(=O)O)=C(/C=C/c3ccc([N+](=O)[O-])cc3[N+](=O)[O-])CS[C@H]12` [Nitrocefin], for which, at VIM-24 [11], the Kcat was 171 ± 4 s⁻¹ and the Km worked out at 11 ± 1 µM.
